# Measurements published in US4015974A, “Amido phosphorothiolates” (priority 1972, dated 1977).
# Assays:
# Type in all cases: in vivo
# [1] = tested on: barnyard grass (Echinochloa crus-galli); test: Pre-emergence application, herbicidal effect on barnyard grass (Table 1); parameters: key: 0: not damaged; 5: completely killed; settings: 20 days after application, score 0-5
# Procedure, shortened: (§1)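 Pre-emergence soil treatment: seeds sown in pots of about 10 cm and covered with soil, then compounds applied as wettable powder diluted in water. Plants grown in a greenhouse; damage scored 20 days after application from 0 (not damaged) to 5 (completely killed).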
# [2] = tested on: large crabgrass (Digitaria sanguinalis); test: Pre-emergence application, herbicidal effect on large crabgrass (Table 1); parameters: key: 0: not damaged; 5: completely killed; settings: 20 days after application, score 0-5
# Procedure, shortened: as §1
# radish = test: Pre-emergence application, herbicidal effect on radish (Table 1); parameters: key: 0: not damaged; 5: completely killed; settings: 20 days after application, score 0-5
# Procedure, shortened: as §1
# [3] = tested on: redroot pigweed (Amaranthus retroflexus); test: Pre-emergence application, herbicidal effect on redroot pigweed (Table 1); parameters: key: 0: not damaged; 5: completely killed; settings: 20 days after application, score 0-5
# Procedure, shortened: as §1
# [4] = tested on: common purslane (Portulaca oleracea); test: Pre-emergence application, herbicidal effect on common purslane (Table 1); parameters: key: 0: not damaged; 5: completely killed; settings: 20 days after application, score 0-5
# Procedure, shortened: as §1
# [5] = tested on: common lambsquarter (Chenopodium album); test: Pre-emergence application, herbicidal effect on common lambsquarter (Table 1); parameters: key: 0: not damaged; 5: completely killed; settings: 20 days after application, score 0-5
# Procedure, shortened: as §1
# rice = test: Water application, phytotoxicity on rice (Table 2); parameters: key: 0: no effect; 1: very slightly affected; 2: slightly affected; 3: moderately affected; 4: considerably affected; 5: completely killed; settings: 25 days, score 0-5
# Procedure, shortened: (§2)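 Flooded paddy-soil pots with 3-leaf-stage transplanted rice and sown barnyard grass; wettable-powder compounds applied to soil under water. Herbicidal effect and rice phytotoxicity, also on spontaneously germinated broad-leaved weeds, scored 0–5 at 25 days after application.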
# [6] = tested on: barnyard grass (Echinochloa crus-galli); test: Water application, herbicidal effect on barnyard grass (Table 2); parameters: key: 0: not damaged; 5: completely killed; settings: 25 days, score 0-5
# Procedure, shortened: as §2
# [7] = tested on: broad-leaved weeds, e.g., monochoria, false pimpernel and toothcup; test: Water application, herbicidal effect on broad-leaved weeds (Table 2); parameters: key: 0: not damaged; 5: completely killed; settings: 25 days, score 0-5
# Procedure, shortened: as §2
SMILES,"Herbicidal effect, barnyard grass ([1]; 10 g./a.)","Herbicidal effect, barnyard grass ([1]; 20 g./a.)","Herbicidal effect, barnyard grass ([1]; 40 g./a.)","Herbicidal effect, large crabgrass ([2]; 10 g./a.)","Herbicidal effect, large crabgrass ([2]; 20 g./a.)","Herbicidal effect, large crabgrass ([2]; 40 g./a.)","Herbicidal effect, radish (radish; 10 g./a.)","Herbicidal effect, radish (radish; 20 g./a.)","Herbicidal effect, radish (radish; 40 g./a.)","Herbicidal effect, redroot pigweed ([3]; 10 g./a.)","Herbicidal effect, redroot pigweed ([3]; 20 g./a.)","Herbicidal effect, redroot pigweed ([3]; 40 g./a.)","Herbicidal effect, common purslane ([4]; 10 g./a.)","Herbicidal effect, common purslane ([4]; 20 g./a.)","Herbicidal effect, common purslane ([4]; 40 g./a.)","Herbicidal effect, common lambsquarter ([5]; 10 g./a.)","Herbicidal effect, common lambsquarter ([5]; 20 g./a.)","Herbicidal effect, common lambsquarter ([5]; 40 g./a.)",Phytotoxicity on rice (rice; 10 g/a),Phytotoxicity on rice (rice; 20 g/a),further results
CCCCCSP(=O)(OCCC)SCC(=O)N1CCCCC1CC (stereo not drawn) [Compound 89],4,5,5,4,5,5,0,0,0,3,4,5,3,4,5,3,4,5,0,0,"Phytotoxicity on rice (rice; 40 g/a): 0; Herbicidal effects, barnyard grass ([6]; 10 g/a): 5; Herbicidal effects, barnyard grass ([6]; 20 g/a): 5; Herbicidal effects, barnyard grass ([6]; 40 g/a): 5; Herbicidal effects, broad-leaved weeds ([7]; 10 g/a): 5; Herbicidal effects, broad-leaved weeds ([7]; 20 g/a): 5; Herbicidal effects, broad-leaved weeds ([7]; 40 g/a): 5"
CCCOP(=O)(SCCC(C)C)SCC(=O)N1CCCCC1CC (stereo not drawn) [Compound 90],5,5,5,5,5,5,0,0,0,3,4,5,3,4,5,3,3,5,0,0,"Phytotoxicity on rice (rice; 40 g/a): 1; Herbicidal effects, barnyard grass ([6]; 10 g/a): 5; Herbicidal effects, barnyard grass ([6]; 20 g/a): 5; Herbicidal effects, barnyard grass ([6]; 40 g/a): 5; Herbicidal effects, broad-leaved weeds ([7]; 10 g/a): 5; Herbicidal effects, broad-leaved weeds ([7]; 20 g/a): 5; Herbicidal effects, broad-leaved weeds ([7]; 40 g/a): 5"
CCCCOP(=O)(SCC)SCC(=O)N1CCCCC1CC (stereo not drawn) [Compound 92],5,5,5,5,5,5,0,0,0,5,5,5,5,5,5,5,5,5,0,0,"Phytotoxicity on rice (rice; 40 g/a): 2; Herbicidal effects, barnyard grass ([6]; 10 g/a): 5; Herbicidal effects, barnyard grass ([6]; 20 g/a): 5; Herbicidal effects, barnyard grass ([6]; 40 g/a): 5; Herbicidal effects, broad-leaved weeds ([7]; 10 g/a): 5; Herbicidal effects, broad-leaved weeds ([7]; 20 g/a): 5; Herbicidal effects, broad-leaved weeds ([7]; 40 g/a): 5"
CCCCOP(=O)(SCCC)SCC(=O)N1CCCCC1CC (stereo not drawn) [Compound 93],5,5,5,5,5,5,0,0,0,4,5,5,4,4,5,4,5,5,0,0,"Phytotoxicity on rice (rice; 40 g/a): 0; Herbicidal effects, barnyard grass ([6]; 10 g/a): 5; Herbicidal effects, barnyard grass ([6]; 20 g/a): 5; Herbicidal effects, barnyard grass ([6]; 40 g/a): 5; Herbicidal effects, broad-leaved weeds ([7]; 10 g/a): 5; Herbicidal effects, broad-leaved weeds ([7]; 20 g/a): 5; Herbicidal effects, broad-leaved weeds ([7]; 40 g/a): 5"
